# Measured values published in paper PMC3557602 (Analytical biochemistry, 2012).
# “Also recorded” adds a separate entry of the source. Structures can show the parent of a compound that is named as a salt.
# Experiments:
# [1] = target: T1, Nterm-phos activity of human sEH (Homo sapiens, UniProt P34913); experiment: AttoPhos assay in kinetic mode; assay type: biochemical
# T1 sequence (P34913 1-555): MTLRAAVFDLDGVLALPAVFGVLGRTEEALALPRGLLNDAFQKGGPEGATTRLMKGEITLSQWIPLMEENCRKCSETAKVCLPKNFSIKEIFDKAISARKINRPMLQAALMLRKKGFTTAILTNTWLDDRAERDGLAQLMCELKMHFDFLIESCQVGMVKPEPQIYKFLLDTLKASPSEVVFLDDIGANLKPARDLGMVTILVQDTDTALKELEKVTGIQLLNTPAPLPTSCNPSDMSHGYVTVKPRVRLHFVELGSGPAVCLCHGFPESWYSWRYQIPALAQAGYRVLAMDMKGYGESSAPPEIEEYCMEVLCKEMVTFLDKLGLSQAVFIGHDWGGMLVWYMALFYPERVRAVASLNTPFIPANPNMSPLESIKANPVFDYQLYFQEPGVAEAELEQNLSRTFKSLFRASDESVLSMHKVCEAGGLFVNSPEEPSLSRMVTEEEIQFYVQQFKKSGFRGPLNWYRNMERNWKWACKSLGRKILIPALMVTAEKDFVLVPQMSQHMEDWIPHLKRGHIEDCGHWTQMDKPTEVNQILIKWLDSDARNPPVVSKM
# [2] = target: T1, Nterm-phos activity of human sEH; experiment: AttoPhos fluorescent endpoint HTS assay for sEH phosphatase activity; assay type: biochemical; conditions: for inhibition at 10 µM: read-out: inhibition of Nterm-phos in library screen; for Nominal Inhibition (%): [E] 2.1 nM, AttoPhos 25 μM, 60 min, 96-well; for inhibition of Nterm-phos in library screen: pesticide library
# [3] = cited from earlier work
# [4] = test system: human alkaline phosphatase; experiment: Selectivity: alkaline phosphatase inhibition; assay type: biochemical
# [5] = target: T2, Nterm-phos expressed alone (Homo sapiens, UniProt P34913); experiment: Inhibition of the N-terminal domain expressed separately; assay type: biochemical; conditions: 10 μM for 5 min
# T2 sequence (P34913 1-224 limits assumed): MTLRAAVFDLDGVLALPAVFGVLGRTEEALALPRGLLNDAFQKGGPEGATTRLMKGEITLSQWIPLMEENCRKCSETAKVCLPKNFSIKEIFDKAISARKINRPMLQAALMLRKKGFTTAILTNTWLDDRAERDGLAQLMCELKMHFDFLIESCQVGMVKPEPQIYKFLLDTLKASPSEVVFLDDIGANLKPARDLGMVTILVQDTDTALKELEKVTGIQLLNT
# human microsomal EH = target: T3, human microsomal EH (Homo sapiens, UniProt P07099); experiment: Selectivity: microsomal EH inhibition; assay type: biochemical
# T3 sequence (P07099 1-455): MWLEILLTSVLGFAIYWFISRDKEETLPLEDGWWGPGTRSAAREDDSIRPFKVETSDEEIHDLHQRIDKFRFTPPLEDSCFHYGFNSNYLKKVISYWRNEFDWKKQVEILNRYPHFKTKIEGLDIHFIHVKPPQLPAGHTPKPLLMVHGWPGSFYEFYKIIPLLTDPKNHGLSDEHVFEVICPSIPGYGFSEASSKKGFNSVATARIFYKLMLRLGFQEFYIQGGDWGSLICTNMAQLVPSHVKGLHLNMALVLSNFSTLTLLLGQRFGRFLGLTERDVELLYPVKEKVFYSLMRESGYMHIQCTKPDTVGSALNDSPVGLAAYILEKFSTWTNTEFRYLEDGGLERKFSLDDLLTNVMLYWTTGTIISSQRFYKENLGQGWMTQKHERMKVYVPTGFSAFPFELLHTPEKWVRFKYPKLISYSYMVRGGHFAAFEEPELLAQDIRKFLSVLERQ
# [6] = target: T4, Cterm-EH activity of human sEH (Homo sapiens, UniProt P34913); experiment: Kinetic constants with a model of irreversible inhibition, PHOME 50 μM; assay type: biochemical; conditions: n = 3
# T4 sequence (P34913 1-555): T1 sequence (P34913 1-555)
# [7] = target: T1, Nterm-phos activity of human sEH; experiment: Kinetic constants with a model of irreversible inhibition, AttoPhos 25 μM; assay type: biochemical
# [8] = target: T4, Cterm-EH activity of human sEH; experiment: Reversibility; assay type: biochemical
# Cterm-EH expressed alone = target: T5, Cterm-EH expressed alone (Homo sapiens, UniProt P34913); experiment: Inhibition of the C-terminal domain expressed separately; assay type: biochemical; conditions: 10 μM for 5 min
# T5 sequence (P34913 235-555 limits assumed): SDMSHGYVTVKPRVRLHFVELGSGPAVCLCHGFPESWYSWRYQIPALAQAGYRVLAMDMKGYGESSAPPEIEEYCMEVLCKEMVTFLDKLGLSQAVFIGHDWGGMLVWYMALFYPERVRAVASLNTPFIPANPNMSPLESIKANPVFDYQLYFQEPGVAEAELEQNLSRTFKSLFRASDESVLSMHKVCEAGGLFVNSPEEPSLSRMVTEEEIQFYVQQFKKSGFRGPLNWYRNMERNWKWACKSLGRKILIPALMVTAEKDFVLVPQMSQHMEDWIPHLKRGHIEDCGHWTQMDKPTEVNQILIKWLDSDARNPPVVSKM
# [9] = target: T4, Cterm-EH activity of human sEH; experiment: Inhibition of sEH epoxide hydrolase activity; assay type: biochemical; conditions: for IC50: IC50 for Cterm-EH
# [10] = test system: a series of esterases and amidases; experiment: Selectivity: esterases and amidases inhibition; assay type: biochemical
# [11] = target: T1, Nterm-phos activity of human sEH; experiment: Reversibility; assay type: biochemical
# [12] = read-out: IC50 (nominal inhibition column), nominal / overall value
# [13] = read-out: IC50 Day 1, Day 1, 3 plates
# [14] = read-out: IC50 Day 2, Day 2, 3 plates
# [15] = read-out: IC50 Day 3, Day 3, 3 plates
# [16] = 20 nM human sEH with 10 μM for 15 min, then dialysis
# [17] = 5 mM glutathione before 10 μM for 5 min
compound,measurement,setting,value
CC(=O)N1CCN(c2ccc(OCC3COC(Cn4ccnc4)(c4ccc(Cl)cc4Cl)O3)cc2)CC1 (stereo not shown) [ketoconazole],IC50,[1],> 100000 nM
O=C1c2ccccc2C(=O)N1SC(Cl)(Cl)Cl [Folpet],IC50,[1],25000 ± 3000 nM
same,inhibition at 10 µM,[2],> 50%
"CCCCCCCCCCCCS(=O)(=O)O [C00002, dodecyl sulfonate]",Nominal Inhibition (%),[2]; [I] 1.6 μM,9 ± 6%
same,Nominal Inhibition (%),[2]; [I] 3.1 μM,26 ± 4%
same,Nominal Inhibition (%),[2]; [I] 6.3 μM,54 ± 4%
same,Nominal Inhibition (%),[2]; [I] 12.5 μM,78 ± 3%
same,Nominal Inhibition (%),[2]; [I] 25 μM,89 ± 1%
same,IC50,[2]; [12],6600 ± 800 nM
same,IC50,[2]; [13],6300 ± 300 nM
same,IC50,[2]; [14],6100 ± 300 nM
same,IC50,[2]; [15],7500 ± 1200 nM
"CCCCCCCCCCCCOP(=O)(O)O [C00003, dodecyl phosphoric acid]",inhibition of Nterm-phos in library screen,[2]; 1 μM,more than 50%
same,inhibition of Nterm-phos in library screen,[2]; 10 μM,more than 50%
same,Nominal Inhibition (%),[2]; [I] 0.8 μM,19 ± 4%
same,Nominal Inhibition (%),[2]; [I] 1.6 μM,39 ± 5%
same,Nominal Inhibition (%),[2]; [I] 3.1 μM,70 ± 3%
same,Nominal Inhibition (%),[2]; [I] 6.3 μM,91 ± 1%
same,Nominal Inhibition (%),[2]; [I] 12.5 μM,98 ± 1%
same,IC50,[2]; [12],2200 ± 300 nM
same,IC50,[2]; [13],1800 ± 200 nM
same,IC50,[2]; [14],2300 ± 200 nM
same,IC50,[2]; [15],2400 ± 100 nM
O=C(O)c1ccccc1C(=O)Nc1ccc(S(=O)(=O)Nc2nccs2)cc1 [phthalyl-sulfathiazole],IC50,[1],> 100000 nM
CCCCC(CC)CCC(CC(C)C)OS(=O)(=O)O (stereo not shown) [sodium tetradecyl sulfate],critical micelle concentration,[3],around 2 mM
S=C(S)NCCNC(=S)S [Nabam],IC50,[1],> 100000 nM
same,inhibition at 10 µM,[2],> 50%
O=c1c2ccccc2[se]n1-c1ccccc1 [ebselen],inhibition of human alkaline phosphatase,[4],did not inhibit; also recorded: not the other enzymes tested
same,inhibition of Nterm-phos expressed alone,[5],totally inhibited
same,inhibition of human microsomal EH,human microsomal EH,not the other enzymes tested
same,"first-order formation rate of the covalent enzyme-inhibitor complex (ki), Cterm-EH",[6],0.39 ± 0.07 min⁻¹
same,Ki,[7],550 nM
same,"ratio of ki, Nterm-phos over Cterm-EH",[7],around 7 fold
same,"first-order formation rate of the covalent enzyme-inhibitor complex (ki), Nterm-phos",[7]; n = 3,2.58 ± 0.05 min⁻¹
same,recovery of Cterm EH activity after dialysis,[8]; [16],not able to recover any
same,effect of glutathione pretreatment on Cterm-EH activity,[8]; [17],protected
same,Cterm-EH activity recovered on glutathione added after exposure,[8]; glutathione added 5 min after exposure,30%
same,inhibition of Cterm-EH expressed alone,Cterm-EH expressed alone,did not significantly inhibit
same,IC50,[1],400 ± 20 nM
same,IC50 ratio Cterm-EH over Nterm-phos,[9],5 fold
same,IC50,[9]; incubation time 1 min,2000 ± 300 nM
same,IC50,[9]; incubation time 15 min,850 ± 50 nM
same,inhibition of esterases and amidases,[10],not the other enzymes tested
same,time to stable inhibition of Nterm-phos,[11],less than a minute
same,recovery of Nterm-phos activity after dialysis,[11]; [16],not able to recover any
same,effect of glutathione pretreatment on Nterm-phos activity,[11]; [17],protected
